Source: patent US7319086B1, “Method of prophylaxis and treatment and agents useful for same” (priority 1999, dated 2008)

Experiments:
Parameters in all cases: species or system P. gingivalis
rHA2 = assay: directed porphyrin binding: porphyrins linked by carbodiimide to ethylene diamine-coated wells; settings: propionic acid groups linked to fixed amines, compared with non-derivatized porphyrin; 125 ng/ml rHA2
Method: Microtiter wells were coated with 100 mM ethylene diamine (pH 4.7) then incubated with 90 μg/ml hemin, protoporphyrin IX, or hematoporphyrin overnight in 50% dimethyl formamide in the presence (+) or absence (−) of 10 mM carbodiimide. Wells were washed 4 times with water then the amount of porphyrin bound to the wells was determined by absorbance at 414 nm (striped bars). […] Error bars represent standard deviation of absorbance measurements. Diagrams of chemical structures for hemin, protoporphyrin IX, and hematoporphyrin are presented adjacent to corresponding data.
The inventors reasoned, therefore, that blocking access to the acidic region of protoporphyrin molecules would have an effect on rHA2-binding and allow more specific characterization of binding between the HA2 domain and the porphyrin ring. Modifying the ligand binding assay system used above, surfaces were first coated with ethylene diamine to provide fixed, free, primary amines for carbodiimide linkage of carboxylic acid groups.

[1] = biological target: binding of rHA2 or the gingipains (RgpA, Kgp) to hemoglobin (Porphyromonas gingivalis, UniProt Q51816, A1188S/A1219P/Q1165E); assay: solution-phase competition assay, hemoglobin-coated wells (rHA2 or gingipains); settings: preincubated 1 hr, read-out: IC50, inhibition of binding to hemoglobin
Method: (§1) Data are representative of two separate experiments. The absence of contaminating protein in a 90 μg protoporphyrin IX preparation was verified by SDS-PAGE and by Coomassie dye binding.
(§2) The IC50s for ligand binding in solution phase competition assays were determined. […] Hemoglobin was used as it was considered to represent the dominant form of porphyrin presentation in the pathological environment of chronic periodontitis.

[2] = biological target: binding of rHA2 or the gingipains (RgpA, Kgp) to hemin (Porphyromonas gingivalis, UniProt Q51816, A1188S/A1219P/Q1165E); assay: solution-phase competition assay, hemin-coated wells; settings: read-out: IC50, inhibition of binding to hemin
Method: as §1, §2

Row | Compound | rHA2-binding to carbodiimide-treated porphyrin (rHA2) | IC50 [1] [µM] | IC50 [2] [µM]
1 | hemin | almost eliminated | – | –
2 | C=CC1=C(C)c2cc3[nH]c(cc4nc(cc5[nH]c(cc1n2)c(C)c5CCC(=O)O)C(CCC(=O)O)=C4C)c(C)c3C=C [protoporphyrin IX] | – | 10 ± 2 | ~2.5
